# In article PMC12217481, “Structure and mechanism of taniborbactam inhibition of the cefepime-hydrolyzing, partial R2-loop deletion Pseudomonas-derived cephalosporinase variant PDC-88” (Antimicrobial Agents and Chemotherapy, 2025):
# Like-named read-outs stand apart in the source and are kept apart here.
# Experiments:
# PDC-88 [1] = test: Spectrophotometric β-lactam hydrolysis (progress curves, steady-state kinetics) by PDC-88; type: biochemical, Pseudomonas aeruginosa; conditions: over 900 s
# Procedure: In order to determine the impact of the PDC-88 variant on hydrolysis, we determined hydrolysis progress curves for PDC-3, PDC-88, and a strongly hydrolyzing comparator (NDM-1 or PER-2) for cefepime (FEP, Fig. 3A), ceftazidime (CAZ, Fig. 3B), ceftolozane (TOL, Fig. 3C), and aztreonam (ATM, Fig. 3D).
# β-Lactamase kinetic and inhibitor constants were determined using an Agilent 8453 UV-Visible Spectrophotometer to record progress curves and determine initial rates and other kinetic parameters as appropriate. Reactions were carried out in 1× phosphate-buffered saline (PBS) (pH 7.4) at room temperature in a 0.2 cm path-length quartz cuvette (Hellma Analytics). Reads were taken every 10 s to minimize UV-mediated background hydrolysis.
# The extinction coefficients used were: nitrocefin, Δε482 = 17,400 M^−1 cm^−1, and cefepime, Δε260 = −10,000 M^−1 cm^−1.
# The kinetic constants KM and Vmax were determined using a nonlinear least-squares regression of the data to the Henri-Michaelis-Menten equation (equation 1) in Origin Version 2020b (OriginLab, Northampton, MA), where v is the velocity of the reaction; Vmax is the theoretical maximum velocity; KM is the Michaelis constant; and [S] is the substrate concentration: […]
# [2] = tested on: E. coli DH10B/pTU625 (PDC-88); test: Broth microdilution MIC, isogenic E. coli expressing PDC-88; type: cell-based, Escherichia coli; conditions: Escherichia coli
# Procedure: (§1) Genetic constructs used for minimum inhibitory concentration (MIC) testing were designed by Venatorx Pharmaceuticals and codon-optimized for use in E. coli and synthesized by Twist Bioscience as described previously ([9]). […] DH10B cells expressing an empty pET24a(+) vector (Novagen) were also grown, and the plasmid purified. Both pCR4-TOPO-PDC-88 and empty pET24a(+) were cut with BamHI and NdeI, the digests run on low-melting point agarose gels, and the bands of interest excised and ligated to yield a PDC-88 expressing pET24a(+) construct with the His tag removed. The PDC-3 expression construct was created in a similar manner but starting with a previously described pBC SK(−) vector ([42]). The final plasmids were grown in E. coli DH10B cells and purified.
# (§2) Modal broth microdilution MICs (or median broth microdilution MICs where appropriate) were determined in accordance with Clinical and Laboratory Standards Institute (CLSI) M07 guidelines ([43]). Isogenic E. coli DH10B cells expressing the abovementioned plasmid-encoded PDC constructs were used. […] CLSI quality control strains Escherichia coli NCTC 13353, E. coli ATCC 35218, and Klebsiella pneumoniae ATCC 700603 were used during testing ([24]).
# PDC-3 [3] = target: T1, PDC-3 (Pseudomonas aeruginosa, UniProt P24735, T105A); test: Timed ESI-MS of acyl-enzyme formation, PDC-3; type: biochemical; conditions: timed ESI-MS, 1 to 30 min (ATM to 60 min)
# T1 construct: The PDC-3 expression construct was created in a similar manner but starting with a previously described pBC SK(−) vector; made in house; host or cells: E. coli BL21-CodonPlus (DE3)-RP, pET24a(+)
# Procedure: (§3) Timed ESI-MS experiments allow tracking of the reaction over time and determination of product modification, enabling the elucidation of mechanistic detail. Time courses were collected for both PDC-3 and PDC-88 with FEP (Fig. 4), CAZ (Fig. S1), TOL (Fig. S2), and ATM (Fig. S3). Substrate modification (here, loss of the R2 group) was determined based on differences between masses of apo and acyl-enzyme peaks (Fig. S4). […] Based on the differences in mass between the apo enzyme peaks, the acyl-enzyme peaks, and the molecular masses of each substrate, the mass of the adducts was determined and used to predict any portion of the substrate molecule that might be lost during the reaction (Fig. S4). As expected ([26][–][28]), all three cephalosporin antibiotics (FEP, CAZ, and TOL) lost their R2 groups during the reaction, while ATM (the sole monobactam) maintained its initial mass.
# (§4) Five micrograms of PDC-3 or PDC-88 was incubated at the indicated molar ratio (1:2 to 1:100 PDC:β-lactam) in a total volume of 20 µL in 1× PBS at pH 7.4 at room temperature for the duration of the indicated time points. Reactions were quenched with the addition of 10 µL acetonitrile and added to 1 mL of 0.1% formic acid in water.
# (§5) Data were collected using a Waters Synapt G2-Si quadrupole time-of-flight (Q-TOF) mass spectrometer and Waters Acquity UPLC BEH C18 1.7 µm column (2.1 by 100 mm). MassLynx V4.1 was used to deconvolute protein peaks. The tune settings for each sample were as follows: capillary voltage of 3.5 kV, sampling cone voltage of 35 V, source offset of 35 V, source temperature of 100°C, desolvation temperature of 500°C, cone gas flow rate of 100 L/h, desolvation gas flow rate of 800 L/h, and nebulizer bar at 6.0. Mobile phase A was 0.1% formic acid in water. Mobile phase B was 0.1% formic acid in acetonitrile. The mass accuracy of this system is ±5 Da.
# [4] = tested on: E. coli DH10B/pTU609 (PDC-3); test: Broth microdilution MIC, isogenic E. coli expressing PDC-3; type: cell-based; conditions: Escherichia coli
# Procedure: as §1, §2
# [5] = tested on: E. coli DH10B/pTU501 (vector); test: Broth microdilution MIC, isogenic E. coli empty vector control; type: cell-based; conditions: Escherichia coli
# Procedure: as §1, §2
# [6] = tested on: K. pneumoniae ATCC 700603; test: Broth microdilution MIC, CLSI quality control strain; type: cell-based; conditions: Klebsiella pneumoniae
# Procedure: as §2
# [7] = tested on: E. coli DH10B/pTU629 (PDC-92); test: Broth microdilution MIC, isogenic E. coli expressing PDC-92; type: cell-based; conditions: Escherichia coli
# Procedure: as §1, §2
# [8] = tested on: E. coli DH10B/pTU626 (PDC-89); test: Broth microdilution MIC, isogenic E. coli expressing PDC-89; type: cell-based; conditions: Escherichia coli
# Procedure: as §1, §2
# [9] = tested on: E. coli DH10B/pTU627 (PDC-90); test: Broth microdilution MIC, isogenic E. coli expressing PDC-90; type: cell-based; conditions: Escherichia coli
# Procedure: as §1, §2
# PDC-88 [10] = target: T2, PDC-88 (Pseudomonas aeruginosa, UniProt P24735, DEL316-317/G27D/G391A/T105A/V205L/V356I); test: Timed ESI-MS of acyl-enzyme formation, PDC-88; type: biochemical; conditions: timed ESI-MS, 1 to 30 min (ATM to 60 min)
# T2 construct: NdeI 5′-[…]-3ʹ and BamHI 5ʹ-[…]-3ʹ; His tag removed) (N); made in house; host or cells: E. coli BL21-CodonPlus (DE3)-RP, pET24a(+)
# Procedure: as §3, §4, §5
# [11] = tested on: E. coli DH10B/pTU628 (PDC-91); test: Broth microdilution MIC, isogenic E. coli expressing PDC-91; type: cell-based; conditions: Escherichia coli
# Procedure: as §1, §2
# [12] = tested on: E. coli DH10B/pTU606 (PDC-1); test: Broth microdilution MIC, isogenic E. coli expressing PDC-1; type: cell-based; conditions: Escherichia coli
# Procedure: as §1, §2
# PDC-3 [13] = target: T1, PDC-3; test: Thermal denaturation by circular dichroism, PDC-3; type: binding
# Procedure: Competitive enzyme inhibitors can increase enzyme thermal stability as a result of binding to the active site.
# Circular dichroism (CD) melting curve experiments were conducted using a J-815 spectropolarimeter (Jasco) and a Peltier effect temperature controller. Suprasil quartz cuvettes with a 0.1 cm path length (Hellma Analytics) were used in all experiments. […] Two-state behavior was observed, as indicated by identical curves at each wavelength. Equilibrium constants were calculated, and the melting temperature, Tm, was calculated from equilibrium denaturation data as previously described ([28]).
# [14] = tested on: isogenic E. coli strains expressing PDC R2-loop deletion variants (PDC-88 to PDC-92); test: MIC changes across the five isogenic E. coli R2-loop deletion strains; type: cell-based, Escherichia coli; conditions: R2-loop deletion variant strains
# Procedure: as §2
# PDC-88 [15] = target: T2, PDC-88; type: binding
# Procedure: Circular dichroism (CD) melting curve experiments were conducted using a J-815 spectropolarimeter (Jasco) and a Peltier effect temperature controller. Suprasil quartz cuvettes with a 0.1 cm path length (Hellma Analytics) were used in all experiments. […] Equilibrium constants were calculated, and the melting temperature, Tm, was calculated from equilibrium denaturation data as previously described ([28]).
# E. coli ATCC 35218 = test: Broth microdilution MIC, CLSI quality control strain; type: cell-based; conditions: Escherichia coli, ATCC35218, read-out: MIC TOL TZB
# Procedure: as §2
smiles,measurement,setting,value
"CC(C)(O/N=C(\C(=O)N[C@@H]1C(=O)N2C(C(=O)[O-])=C(C[n+]3ccccc3)CS[C@H]12)c1csc(N)n1)C(=O)O [CAZ, ceftazidime]",difference between hydrolysis progress curves of PDC-3 and PDC-88,PDC-88 [1],no appreciable difference
same,MIC,[2]; read-out: MIC CAZ AVI,1 µg/mL
same,MIC,"[2]; E. coli DH10B/pTU625 (PDC-88), read-out: MIC CAZ Alone",128 µg/mL
same,acyl-enzyme complex formation and deacylation,PDC-3 [3],formed acyl-enzyme complexes with CAZ that deacylated slowly
same,MIC,[4]; read-out: MIC CAZ AVI,1 µg/mL
same,MIC,"[4]; E. coli DH10B/pTU609 (PDC-3), read-out: MIC CAZ Alone",64 µg/mL
same,MIC,[5]; read-out: MIC CAZ AVI,0.5 µg/mL
same,MIC,[5]; read-out: MIC CAZ Alone,0.5 µg/mL
same,MIC,"[6]; ATCC700603, read-out: MIC CAZ AVI",1 µg/mL
same,MIC,"[6]; ATCC700603, read-out: MIC CAZ Alone",32 µg/mL
same,MIC,[7]; read-out: MIC CAZ AVI,1 µg/mL
same,MIC,"[7]; E. coli DH10B/pTU629 (PDC-92), read-out: MIC CAZ Alone",> 128 µg/mL
same,MIC,[8]; read-out: MIC CAZ AVI,1 µg/mL
same,MIC,"[8]; E. coli DH10B/pTU626 (PDC-89), read-out: MIC CAZ Alone",128 µg/mL
same,MIC,[9]; read-out: MIC CAZ AVI,2 µg/mL
same,MIC,"[9]; E. coli DH10B/pTU627 (PDC-90), read-out: MIC CAZ Alone",> 128 µg/mL
same,acyl-enzyme complex formation and deacylation,PDC-88 [10],formed acyl-enzyme complexes with CAZ that deacylated slowly
same,MIC,[11]; read-out: MIC CAZ AVI,1 µg/mL
same,MIC,"[11]; E. coli DH10B/pTU628 (PDC-91), read-out: MIC CAZ Alone",128 µg/mL
same,MIC,[12]; read-out: MIC CAZ AVI,1 µg/mL
same,MIC,"[12]; E. coli DH10B/pTU606 (PDC-1), read-out: MIC CAZ Alone",64 µg/mL
"C[C@]1(Cn2ccnn2)[C@H](C(=O)O)N2C(=O)C[C@H]2S1(=O)=O [TZB, tazobactam]",increase of Tm upon addition of inhibitor,PDC-3 [13]; PDC-3,1 °C
same,Tm,"PDC-3 [13]; PDC-3 with inhibitor, circular dichroism, PDC-3 alone 52°C",53 °C
same,decrease of FEP MIC of variants by inhibitor,[14]; inhibitor at constant 4 µg/mL with FEP,two- to fourfold
same,restoration of FEP activity / susceptibility by inhibitor,[14]; inhibitor at constant 4 µg/mL,failed to restore susceptibility for any of the variants
same,increase of Tm upon addition of inhibitor,PDC-88 [15]; PDC-88,1 °C
same,Tm,"PDC-88 [15]; PDC-88 with inhibitor, circular dichroism, PDC-88 alone 53°C",54 °C
"Cn1c(N)c(NC(=O)NCCN)c[n+]1CC1=C(C(=O)O)N2C(=O)[C@@H](NC(=O)/C(=N\OC(C)(C)C(=O)[O-])c3nsc(N)n3)[C@H]2SC1 [TOL, ceftolozane]",difference between hydrolysis progress curves of PDC-3 and PDC-88,PDC-88 [1],no appreciable difference
same,MIC,[2]; read-out: MIC TOL TZB,8 µg/mL
same,MIC,"[2]; E. coli DH10B/pTU625 (PDC-88), read-out: MIC TOL Alone",16 µg/mL
same,acyl-enzyme complex formation and deacylation,PDC-3 [3],did not form a detectable acyl-enzyme complex
same,MIC,[4]; read-out: MIC TOL TZB,4 µg/mL
same,MIC,"[4]; E. coli DH10B/pTU609 (PDC-3), read-out: MIC TOL Alone",4 µg/mL
same,MIC,[5]; read-out: MIC TOL Alone,0.5 µg/mL
same,MIC,[5]; read-out: MIC TOL TZB,0.5 µg/mL
same,MIC,E. coli ATCC 35218,0.25 µg/mL
same,MIC,[7]; read-out: MIC TOL TZB,8 µg/mL
same,MIC,"[7]; E. coli DH10B/pTU629 (PDC-92), read-out: MIC TOL Alone",16 µg/mL
same,MIC,[8]; read-out: MIC TOL TZB,8 µg/mL
same,MIC,"[8]; E. coli DH10B/pTU626 (PDC-89), read-out: MIC TOL Alone",16 µg/mL
same,MIC,[9]; read-out: MIC TOL TZB,16 µg/mL
same,MIC,"[9]; E. coli DH10B/pTU627 (PDC-90), read-out: MIC TOL Alone",16 µg/mL
same,acyl-enzyme complex formation and deacylation,PDC-88 [10],formed an acyl-enzyme complex that deacylated at a moderate rate
same,MIC,[11]; read-out: MIC TOL TZB,16 µg/mL
same,MIC,"[11]; E. coli DH10B/pTU628 (PDC-91), read-out: MIC TOL Alone",16 µg/mL
same,MIC,[12]; read-out: MIC TOL TZB,4 µg/mL
same,MIC,"[12]; E. coli DH10B/pTU606 (PDC-1), read-out: MIC TOL Alone",4 µg/mL
